The test system of one data set is rat mesenteric artery. The data set is described as follows: Vasodilation on rat mesenteric small arteries. Conditions: relaxation of small arteries (200-300 µm) precontracted with endothelin. From the text:
Small arteries (200-300 µm in diameter) isolated from rat mesentery were precontracted with endothelin prior to addition of the test substances and tested for relaxation.

The nature of data set [1]: Brine shrimp toxicity bioassay. Type of data set: in vivo. Conditions: Artemia salina (brine shrimp), in vivo; 24 hours, 2% DMSO. The source says: (§1) The brine shrimp assay procedure determines LC50 values of active compounds. Activities of a broad range of known active compounds are manifested as toxicity to brine shrimp (Artemia salina Leach). There are many applications of the assay including analysis of toxic substances, anaesthetics, morphine-like substances and cocarcinogenicity of phorbol esters.
(§2) The method for testing solvent toxicity used was basically that reported by J L McLaughlin in Methods of Plant Biochemistry (1991), vol. 6 (K Hostettman, ed.), Academic Press, London, 1-32. DMSO solutions of the substances to be tested were added directly to the vials containing the brine shrimp. As the concentration of DMSO that we wished to use was higher than the recommended 1% v/v testing of the toxicity of the DMSO was therefore necessary. The concentrations of DMSO tested on the shrimp, along with the results from the assay which was done in duplicate are listed below.
(§3) Brine shrimp toxicity was assayed, except for some minor modifications, according to the method of McLaughlin et al as reported in Brine Shrimp: A convenient bioassay for active plant constituents, B N Meyer, N R Ferrigni, J E Putnam, L B Jacobsen, D E Nichols and J L McLaughlin in Planta Medica (1982), 45, 31-34 and Crown gall tumours on potato discs and brine shrimp lethality: Two simple bioassays for higher plant screening and fractionation. J L McLaughlin. Methods of Plant Biochemistry (1991), vol. 6 (K Hostettman, ed.), Academic Press, London, 1-32. Ten shrimp were transferred to each of the vials and the volume adjusted to 4.9 mL. Each dose was performed in triplicate, including the control. In quick succession, the appropriate volume of additional DMSO for each dose, required to achieve a final concentration of 2%, was added before the appropriate volume of test solution. The vials were gently mixed and the time noted. After 24 hours, the number of survivors were counted and % mortality was determined. The test compounds were assayed at concentrations of 100 µM, 25 µM, 5 µM, 1 µM and 0.2 µM (and where appropriate concentrations of 0.04 µM and 0.008 µM).
(§4) The brine shrimp were able to survive without food in the vials over the 24 hour period and were therefore not fed.
(§5) The dose-response curves were constructed using the Sigmaplot computer program and the LC50 value was calculated from the intersection point of the curve and the 50 % mortality line. The LC50 values were expressed in both µM and µg/mL.

The next data set concerns the target T1, Lipoxygenase (LP) (Rattus norvegicus, UniProt P12527).
T1 construct: cell-free enzyme (Wong et al, 1991) prepared from rat basophilic leukemia (RBL) 2H3 cell lines; endogenous in cells; host or cells: RBL 2H3 (rat basophilic leukemia), 15,000 g supernatant of cells disrupted by nitrogen cavitation
T1 sequence (P12527 1-673): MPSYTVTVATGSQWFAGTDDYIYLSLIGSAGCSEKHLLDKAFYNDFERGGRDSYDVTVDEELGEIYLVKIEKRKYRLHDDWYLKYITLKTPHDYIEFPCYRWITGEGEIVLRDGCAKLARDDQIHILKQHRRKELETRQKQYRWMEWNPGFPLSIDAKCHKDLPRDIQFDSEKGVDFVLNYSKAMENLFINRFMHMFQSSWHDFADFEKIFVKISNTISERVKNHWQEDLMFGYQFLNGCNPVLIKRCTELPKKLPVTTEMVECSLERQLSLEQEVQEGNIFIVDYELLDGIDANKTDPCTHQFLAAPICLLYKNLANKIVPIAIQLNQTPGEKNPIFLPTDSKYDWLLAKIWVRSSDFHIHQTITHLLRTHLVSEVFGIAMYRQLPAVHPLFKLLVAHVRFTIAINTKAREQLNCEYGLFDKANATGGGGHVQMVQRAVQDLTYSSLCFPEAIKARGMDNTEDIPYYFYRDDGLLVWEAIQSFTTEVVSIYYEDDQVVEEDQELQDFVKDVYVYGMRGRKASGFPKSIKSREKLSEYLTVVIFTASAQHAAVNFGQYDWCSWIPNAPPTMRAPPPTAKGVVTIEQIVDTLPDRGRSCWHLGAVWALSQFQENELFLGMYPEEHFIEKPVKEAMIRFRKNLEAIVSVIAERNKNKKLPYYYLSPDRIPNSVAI
In words: Lipoxygenase assay with cell-free enzyme from RBL 2H3 cells (EIA). The class given is biochemical. Conditions: final concentration of 10 µM. The procedure:
Lipoxygenase (LP) assay was performed with cell-free enzyme (Wong et al, 1991) prepared from rat basophilic leukemia (RBL) 2H3 cell lines. Cells were cultured in EMEM containing 10% fetal calf serum and antibiotic until cells reached confluence. Harvested cells were resuspended in Hepes (10 mM) buffer, pH 7.4, containing 1 mM EDTA at 1 x 10^7 cells/ml, and disrupted by nitrogen cavitation using a Parr bomb at 750 psi for 15 min. The broken cells were centrifuged at 15,000 g for 30 min. Aliquots (0.1 ml) of the supernatant were preincubated with or without drugs in Hepes buffer (10 mM Hepes, pH 7, 1 mM EDTA and 150 mM NaCl) for 5 min, and the reaction was initiated with the addition of 50 µl of CaCl2 (16 mM), 50 µl of ATP (2 mM), 5 µl of PAF (2.5 mg/ml) and 5 µl of AA (2.5 mM). The reaction mixture ([…]) was incubated at room temperature for a further 8 min, then diluted with EIA buffer at 1/200 and 1/2000 dilutions and stored on ice for EIA following the protocol provided with the kit.
Validation of LP enzyme activity was carried out by a UV spectrophotometric method in which the enzyme activity was characterised against various concentrations of Ca^2+, ATP, PAF and AA with the measurement of the formation of diene conjugated products of LP at 235 nm.
All compounds were dissolved in DMSO and assayed at a final concentration of 10 µM. NDGA was used as reference compound. The concentration of DMSO in the assay was maintained at 1.5%.

A further data set has as its system guinea pig atria. In words: Organ bath assay on isolated guinea pig atria (rate and force of contraction). Conditions: guinea pig atria. The procedure:
Male guinea pigs, 3-4 weeks old, were killed by rapid cervical dislocation without induced anaesthesia. Then, the guinea pigs were dissected to isolate the atria which were immediately mounted vertically in an organ bath containing Krebs-Henseleit solution oxygenated with carbogen.
One gram tension was applied to the atria and the base line continuously adjusted until it was stable for 20 mins. The rate and force of contraction were recorded using Mac Lab equipment.
Test substances in DMSO were assayed to a maximum concentration of 50 µM at a final concentration of 2.5 % of DMSO.

The next data set concerns the target T2, SR Ca^2+-ATPase (Canis lupus familiaris, UniProt O46674).
T2 construct: Effect of gingerols and their derivatives on the Ca^2+-ATPase activity of dog cardiac SR; from tissue; host or cells: dog heart (cardiac sarcoplasmic reticulum)
In words: Sarcoplasmic reticulum Ca^2+-ATPase assay. The class given is biochemical, dog. Conditions: for SR Ca^2+-ATPase Activity: 0 µM = 100, dog cardiac SR; for IC50: read-out: SR Ca^2+-ATPase IC50 = conc. for 50% inhibition. The procedure:
A portion at each concentration (54 µl) was aliquoted into 4 designated wells of the microplate (two of four wells were controls). Each well was mixed with ATP solution (20 mM, 6 µl), except the controls, using an 8 channel pipette. The controls were assayed in the absence of ATP or calcium.
The plate was incubated with the lid on, for 30 min at 37°C, colour reagent (160 µl) was then added and mixed with citrate solution (34%, 30 µl). The plate was developed at room temperature for 30 min then absorbance at 655 nm was read from the microplate reader. The Ca^2+-ATPase activity was quantitated, from a Pi standard curve, as concentration of liberated inorganic phosphate.
Stock solutions (10 mM) of test substance were prepared in DMSO, then series dilutions were made either in DMSO or in 1M HEPES to produce the dose-response concentrations. The maximum concentration of DMSO in the final assay solution was 2.5%.
Each concentration of test substance was assayed in duplicate in the presence and absence of ATP or calcium. Phosphate standards are run on each plate as follows:
Effect of gingerols and their derivatives on the Ca^2+-ATPase activity of dog cardiac SR.

Data set [2] relates to brine shrimp (Artemia salina Leach). In words: Brine shrimp toxicity bioassay. Type of data set: in vivo.
Source text: as §1, §2, §3, §4, §5

“And” between values parts separate entries of the source, which are not always exact repeats. Identical values can stand only once.

T2 sequence (O46674 whole entry): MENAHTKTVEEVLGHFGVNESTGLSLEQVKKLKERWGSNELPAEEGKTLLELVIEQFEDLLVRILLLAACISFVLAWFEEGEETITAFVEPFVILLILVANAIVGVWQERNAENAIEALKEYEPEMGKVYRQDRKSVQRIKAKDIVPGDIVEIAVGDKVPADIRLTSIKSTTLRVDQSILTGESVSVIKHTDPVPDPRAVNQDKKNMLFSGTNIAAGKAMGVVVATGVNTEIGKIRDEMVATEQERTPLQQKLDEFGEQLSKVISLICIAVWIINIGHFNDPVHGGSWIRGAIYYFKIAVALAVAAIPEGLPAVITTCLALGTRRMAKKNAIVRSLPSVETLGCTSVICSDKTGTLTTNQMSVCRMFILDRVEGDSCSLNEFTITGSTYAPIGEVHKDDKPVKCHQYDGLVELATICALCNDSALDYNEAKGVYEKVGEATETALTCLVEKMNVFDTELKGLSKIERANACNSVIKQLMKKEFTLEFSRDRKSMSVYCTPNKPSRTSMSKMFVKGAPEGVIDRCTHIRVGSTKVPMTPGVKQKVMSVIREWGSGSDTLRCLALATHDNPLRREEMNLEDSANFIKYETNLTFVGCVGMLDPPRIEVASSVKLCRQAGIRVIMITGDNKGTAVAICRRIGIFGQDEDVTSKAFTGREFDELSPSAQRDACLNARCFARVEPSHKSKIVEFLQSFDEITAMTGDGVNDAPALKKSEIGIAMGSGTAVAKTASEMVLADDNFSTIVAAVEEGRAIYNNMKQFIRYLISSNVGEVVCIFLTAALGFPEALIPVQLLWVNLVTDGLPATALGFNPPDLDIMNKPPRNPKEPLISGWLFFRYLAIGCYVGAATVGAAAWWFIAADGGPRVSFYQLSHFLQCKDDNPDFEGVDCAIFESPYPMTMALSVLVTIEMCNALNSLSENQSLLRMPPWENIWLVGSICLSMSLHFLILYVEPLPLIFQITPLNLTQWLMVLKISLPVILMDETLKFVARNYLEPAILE

Turning to `CCCCCCCCCC(O)CCc1ccc(O)c(OC)c1` (single isomer, unassigned) [enantiomer-2, 1-(4-hydroxy-3-methoxyphenyl)dodecan-3-ol], in the data set on rat mesenteric artery (Rattus norvegicus), the EC50 (in general, the concentration needed to bring the measured effect to its halfway point) came to 320 nM.
Take `CCCCCCCCCC(O)CCc1ccc(O)c(OC)c1` (single isomer, unassigned; enantiomer-1) [enantiomer-1, enantiomer-1 of 1-(4-hydroxy-3-methoxyphenyl)dodecan-3-ol]: the midpoint of the response with rat mesenteric artery, the EC50, lay at 500 nM.
With `CCCCCCCC=CC(=O)C=Cc1ccc(O)c(OC)c1` [1-(4-hydroxy-3-methoxyphenyl)dodecane-1,4-diene-3-one], in data set [1], the LC50 (in general, the concentration that kills 50% of the test population) at 24 h is 5.4 µM and 1.6 µg/mL. For the same compound, the activity at 10 µM at Lipoxygenase (LP) came to 2%.
With `CCCCCCCCCC(O)CC(=O)c1ccc(O)c(OC)c1` (stereo not shown) [3-hydroxy-1-(4-hydroxy-3-methoxyphenyl)dodecan-1-one], the LC50 at 24 h in data set [1] was 10 µM and 3.2 µg/mL. In the data set with guinea pig atria (@ 30 (µM)), the “FORCE OF CONTRACT^n ↑ increase” value is reported as “↑11% @ 30”. In addition, the “SR Ca^2+-ATPase Activity” value at SR Ca^2+-ATPase (1 µM) is listed as 122; on SR Ca^2+-ATPase (5 µM) it was 111; at SR Ca^2+-ATPase (10 µM), 133; at SR Ca^2+-ATPase (25 µM) it was 147; at SR Ca^2+-ATPase (50 µM) it was 158; on SR Ca^2+-ATPase (100 µM), 149. Further, the “SR Ca^2+-ATPase ↑ increase or stimulation” value at SR Ca^2+-ATPase (@ 10 µM) is “↑60% @ 10”. For the same compound, the IC50 – broadly, the midpoint of a concentration-inhibition curve – on SR Ca^2+-ATPase stood at 50000 nM.
On to `CCCCCCCC(O)CC(=O)C=Cc1ccc(O)cc1` (stereo not shown) [5-hydroxy-1-(4-hydroxyphenyl)dodecan-1-ene-3-one], for which, in data set [1], the LC50 at 24 h is 2.6 µM and 0.75 µg/mL.
On to `C[S+](C)[O-]` [DMSO, dimethyl sulfoxide], for which the “% Deaths” value was 0% in data set [2] (Conc 1 % v/v); 0% in data set [2] (Conc 2 % v/v); 0% in data set [2] (Conc 3 % v/v); 0% in data set [2] (Conc 4 % v/v); 9% in data set [2] (Conc 5 % v/v); 12% in data set [2] (Conc 7 % v/v). The “% Deaths” value in data set [2] (Conc 9 % v/v) was 18%; in data set [2] (Conc 11 % v/v), 57%; in data set [2] (Conc 13 % v/v), 96%; in data set [2] (Conc 15 % v/v), 100%; in data set [2] (Conc 20 % v/v) it was 100%; in data set [2] (Conc 25 % v/v), 100%.
Take `CCCCCC(O)CC(=O)CCc1ccc(O)cc1` (stereo not shown) [[6]-demethoxygingerol, 5-hydroxy-1-(4-hydroxyphenyl)decan-3-one]: the LC50 at 24 h in data set [1] is > 100 µM and > 26 µg/mL. Besides, in the data set on guinea pig atria (result in words), the “FORCE OF CONTRACT^n” value is “inactive” and the “HEART RATE” value was “inactive”. For the same compound, the IC50 on SR Ca^2+-ATPase is over 100000 nM.

Values taken from patent EP1056700B1, “MEDICINAL USES OF PHENYLALKANOLS AND DERIVATES” (ZingoTX Pty Ltd, priority 1997, dated 1999).
